From ChEMBL document CHEMBL1201862, “PubChem BioAssay data set” (2004)
Calls of active or inactive are those of the source.

How the values were obtained:
Nonstructural protein 1 = Nonstructural protein 1 (Influenza A virus, UniProt Q194T2); assay type: functional, Influenza A virus (A/California/07/2009(H1N1))
Protein RecA = target: T1, Protein RecA (Mycobacterium tuberculosis, UniProt P9WHJ3); assay: Fluorescence Cell-Free Homogeneous Dose Retest to Identify Inhibitors of RecA-Intein Splicing Activity. [Related pubchem assays (depositor defined):AID2097, AID2223, AID489010, AID492950]; assay type: functional
T1 sequence (P9WHJ3 whole entry): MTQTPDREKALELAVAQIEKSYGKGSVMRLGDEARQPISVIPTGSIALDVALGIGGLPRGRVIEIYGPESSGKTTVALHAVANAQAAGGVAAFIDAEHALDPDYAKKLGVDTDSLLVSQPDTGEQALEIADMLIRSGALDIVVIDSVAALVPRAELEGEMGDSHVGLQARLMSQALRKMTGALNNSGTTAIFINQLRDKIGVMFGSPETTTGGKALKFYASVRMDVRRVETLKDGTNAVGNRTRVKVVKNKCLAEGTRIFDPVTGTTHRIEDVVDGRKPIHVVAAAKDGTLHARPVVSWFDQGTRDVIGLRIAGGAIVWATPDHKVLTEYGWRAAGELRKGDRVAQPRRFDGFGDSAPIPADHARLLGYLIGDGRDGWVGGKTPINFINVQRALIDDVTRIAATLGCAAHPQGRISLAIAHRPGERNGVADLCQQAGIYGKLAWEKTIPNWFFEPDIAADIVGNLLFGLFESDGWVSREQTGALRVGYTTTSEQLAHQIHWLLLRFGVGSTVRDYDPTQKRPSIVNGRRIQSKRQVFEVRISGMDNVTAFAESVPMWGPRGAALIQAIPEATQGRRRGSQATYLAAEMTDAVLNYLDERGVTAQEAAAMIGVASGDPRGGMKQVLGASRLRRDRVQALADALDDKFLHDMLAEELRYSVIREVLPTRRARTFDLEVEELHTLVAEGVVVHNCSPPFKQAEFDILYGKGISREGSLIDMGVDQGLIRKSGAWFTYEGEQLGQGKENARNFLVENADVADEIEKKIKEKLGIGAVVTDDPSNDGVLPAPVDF

Aurora kinase B = Aurora kinase B (Homo sapiens, UniProt Q96GD4); assay type: functional
[1] = target: cAMP-dependent protein kinase catalytic subunit PRKX (Homo sapiens, UniProt P51817); assay type: functional
[2] = target: Serine/threonine-protein kinase PLK1 (Homo sapiens, UniProt P53350); assay type: functional;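 note: PLK1 measured as one member of a kinome-wide profiling panel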
[3] = target: Receptor-type tyrosine-protein kinase FLT3 (Homo sapiens, UniProt P36888); assay type: functional;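 note: FLT3 was tested as one member of a kinome-wide kinase panel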
[4] = target: Serine/threonine-protein kinase Chk1 (Homo sapiens, UniProt O14757); assay type: functional;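 note: measured as one member of a kinome-wide kinase profiling panel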
[5] = target: Mitogen-activated protein kinase kinase kinase 20 (Homo sapiens, UniProt Q9NYL2); assay type: functional
Sequence of Mitogen-activated protein kinase kinase kinase 20 (Q9NYL2 whole entry): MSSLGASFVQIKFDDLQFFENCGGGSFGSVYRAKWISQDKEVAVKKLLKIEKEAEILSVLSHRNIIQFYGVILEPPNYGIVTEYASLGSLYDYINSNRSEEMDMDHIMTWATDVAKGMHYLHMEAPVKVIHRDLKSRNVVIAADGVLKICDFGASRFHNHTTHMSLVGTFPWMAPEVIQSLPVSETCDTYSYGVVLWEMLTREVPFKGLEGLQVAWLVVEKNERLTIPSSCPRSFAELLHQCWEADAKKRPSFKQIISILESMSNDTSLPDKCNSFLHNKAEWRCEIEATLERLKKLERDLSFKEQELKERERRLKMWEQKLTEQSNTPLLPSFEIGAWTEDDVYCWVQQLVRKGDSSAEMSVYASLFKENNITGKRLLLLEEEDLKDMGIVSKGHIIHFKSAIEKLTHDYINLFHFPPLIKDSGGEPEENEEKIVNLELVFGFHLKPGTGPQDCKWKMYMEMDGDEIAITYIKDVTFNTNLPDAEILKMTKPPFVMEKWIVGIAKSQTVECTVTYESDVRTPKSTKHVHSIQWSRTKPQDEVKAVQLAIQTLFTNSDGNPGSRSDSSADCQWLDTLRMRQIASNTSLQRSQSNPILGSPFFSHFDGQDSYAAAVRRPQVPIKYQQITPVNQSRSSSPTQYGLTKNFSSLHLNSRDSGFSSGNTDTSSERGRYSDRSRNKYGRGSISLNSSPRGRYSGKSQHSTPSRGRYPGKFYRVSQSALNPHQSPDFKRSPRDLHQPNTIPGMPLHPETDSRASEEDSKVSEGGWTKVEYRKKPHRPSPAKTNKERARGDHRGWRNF

[6] = target: Serine/threonine-protein kinase PAK 4 (Homo sapiens, UniProt O96013); assay type: functional;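 note: value obtained within a kinome profiling panel in which PAK4 was one of the panel members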
Sequence of Serine/threonine-protein kinase PAK 4 (O96013 whole entry): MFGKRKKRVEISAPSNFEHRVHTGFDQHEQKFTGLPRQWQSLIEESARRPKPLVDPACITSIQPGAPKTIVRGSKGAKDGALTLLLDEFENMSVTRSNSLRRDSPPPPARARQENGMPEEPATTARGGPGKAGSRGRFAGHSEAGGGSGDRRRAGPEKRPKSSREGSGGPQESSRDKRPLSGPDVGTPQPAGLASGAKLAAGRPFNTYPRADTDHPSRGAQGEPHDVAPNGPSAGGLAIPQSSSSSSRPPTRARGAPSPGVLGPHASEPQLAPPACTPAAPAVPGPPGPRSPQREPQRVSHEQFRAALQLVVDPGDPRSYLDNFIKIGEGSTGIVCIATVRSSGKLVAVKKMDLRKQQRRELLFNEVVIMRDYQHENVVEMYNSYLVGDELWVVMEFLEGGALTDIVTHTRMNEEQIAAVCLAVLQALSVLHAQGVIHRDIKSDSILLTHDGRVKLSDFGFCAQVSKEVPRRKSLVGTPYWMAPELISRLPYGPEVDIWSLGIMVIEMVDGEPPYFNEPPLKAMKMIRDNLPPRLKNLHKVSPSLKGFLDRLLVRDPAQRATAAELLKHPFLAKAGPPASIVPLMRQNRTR

[7] = target: RAC-alpha serine/threonine-protein kinase (Homo sapiens, UniProt P31749); assay type: functional;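 note: AKT1 affinity measured as one member of a kinome-wide kinase profiling panel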
[8] = target: Cyclin-dependent kinase 5 (Homo sapiens, UniProt Q00535); assay type: functional;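 note: CDK5 measured as one member of a kinase profiling panel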
[9] = target: Dual specificity mitogen-activated protein kinase kinase 2 (Homo sapiens, UniProt P36507); assay: Navigating the Kinome. Panel member name: MAP2K2; assay type: functional
[10] = target: STE20-like serine/threonine-protein kinase (Homo sapiens, UniProt Q9H2G2); assay type: functional
Sequence of STE20-like serine/threonine-protein kinase (Q9H2G2 whole entry): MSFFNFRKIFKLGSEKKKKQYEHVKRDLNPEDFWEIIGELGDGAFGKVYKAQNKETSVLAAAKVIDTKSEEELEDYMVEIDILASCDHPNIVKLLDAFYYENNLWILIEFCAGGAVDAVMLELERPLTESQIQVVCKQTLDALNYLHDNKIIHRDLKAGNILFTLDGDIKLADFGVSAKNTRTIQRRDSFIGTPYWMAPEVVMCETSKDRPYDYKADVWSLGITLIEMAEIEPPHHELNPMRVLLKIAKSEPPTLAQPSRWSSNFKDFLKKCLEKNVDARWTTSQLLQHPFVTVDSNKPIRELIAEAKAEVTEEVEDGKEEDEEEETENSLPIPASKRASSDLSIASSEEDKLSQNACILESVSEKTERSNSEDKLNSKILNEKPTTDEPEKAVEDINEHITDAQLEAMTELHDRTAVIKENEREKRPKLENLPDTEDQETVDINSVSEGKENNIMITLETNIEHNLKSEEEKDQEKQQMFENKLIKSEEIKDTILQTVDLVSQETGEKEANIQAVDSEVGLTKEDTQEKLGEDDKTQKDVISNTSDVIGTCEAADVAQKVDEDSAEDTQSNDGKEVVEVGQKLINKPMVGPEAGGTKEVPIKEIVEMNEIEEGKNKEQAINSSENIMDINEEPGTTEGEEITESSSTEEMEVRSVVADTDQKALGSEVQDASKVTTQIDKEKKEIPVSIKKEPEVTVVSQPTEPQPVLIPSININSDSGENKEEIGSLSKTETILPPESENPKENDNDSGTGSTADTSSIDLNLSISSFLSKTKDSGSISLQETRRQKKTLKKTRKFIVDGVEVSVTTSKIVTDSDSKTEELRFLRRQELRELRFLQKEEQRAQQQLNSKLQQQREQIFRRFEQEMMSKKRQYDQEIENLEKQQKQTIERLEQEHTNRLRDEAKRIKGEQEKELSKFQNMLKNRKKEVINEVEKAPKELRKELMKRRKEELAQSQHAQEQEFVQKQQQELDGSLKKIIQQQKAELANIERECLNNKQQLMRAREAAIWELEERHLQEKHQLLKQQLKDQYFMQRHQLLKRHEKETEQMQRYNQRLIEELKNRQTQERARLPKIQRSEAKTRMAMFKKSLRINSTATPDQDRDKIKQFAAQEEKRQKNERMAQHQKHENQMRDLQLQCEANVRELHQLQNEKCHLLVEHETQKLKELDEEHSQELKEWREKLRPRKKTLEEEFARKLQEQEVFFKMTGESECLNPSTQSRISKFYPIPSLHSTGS

[11] = target: Mitogen-activated protein kinase kinase kinase kinase 4 (Homo sapiens, UniProt O95819); assay type: functional
[12] = target: Tyrosine-protein kinase JAK3 (Homo sapiens, UniProt P52333); assay type: functional
Sequence of Tyrosine-protein kinase JAK3 (P52333 whole entry): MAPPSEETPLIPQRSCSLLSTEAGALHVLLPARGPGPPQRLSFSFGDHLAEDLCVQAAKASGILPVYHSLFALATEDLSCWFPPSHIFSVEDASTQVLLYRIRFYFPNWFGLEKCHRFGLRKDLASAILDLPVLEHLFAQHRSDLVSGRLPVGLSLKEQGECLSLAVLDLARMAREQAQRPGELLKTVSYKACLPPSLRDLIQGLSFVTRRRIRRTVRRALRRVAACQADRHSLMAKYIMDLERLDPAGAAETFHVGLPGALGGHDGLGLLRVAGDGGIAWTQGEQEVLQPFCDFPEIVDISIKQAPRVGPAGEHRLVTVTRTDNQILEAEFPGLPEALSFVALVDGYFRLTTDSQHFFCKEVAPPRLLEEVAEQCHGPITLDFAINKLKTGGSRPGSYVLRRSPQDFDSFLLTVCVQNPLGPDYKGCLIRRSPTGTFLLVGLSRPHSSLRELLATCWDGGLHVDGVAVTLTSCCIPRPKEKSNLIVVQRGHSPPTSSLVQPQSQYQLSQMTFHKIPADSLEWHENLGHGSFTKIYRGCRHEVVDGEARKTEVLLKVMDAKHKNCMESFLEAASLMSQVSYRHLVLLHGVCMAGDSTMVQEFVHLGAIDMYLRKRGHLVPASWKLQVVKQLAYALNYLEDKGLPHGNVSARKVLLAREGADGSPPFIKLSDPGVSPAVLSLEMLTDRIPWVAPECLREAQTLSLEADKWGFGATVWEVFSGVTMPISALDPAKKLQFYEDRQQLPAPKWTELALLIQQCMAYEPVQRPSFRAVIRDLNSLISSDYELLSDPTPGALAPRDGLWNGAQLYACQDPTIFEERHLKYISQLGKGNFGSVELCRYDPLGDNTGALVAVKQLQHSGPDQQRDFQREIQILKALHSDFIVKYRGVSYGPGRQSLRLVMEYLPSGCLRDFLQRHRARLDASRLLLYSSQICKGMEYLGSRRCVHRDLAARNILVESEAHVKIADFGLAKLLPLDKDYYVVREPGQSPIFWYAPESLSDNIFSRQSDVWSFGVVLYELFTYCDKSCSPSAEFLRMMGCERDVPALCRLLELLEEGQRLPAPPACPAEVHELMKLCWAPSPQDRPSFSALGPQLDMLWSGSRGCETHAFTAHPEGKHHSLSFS

Activated CDC42 kinase 1 = Activated CDC42 kinase 1 (Homo sapiens, UniProt Q07912); assay: Navigating the Kinome. Panel member name: ACK1; assay type: functional
[13] = target: Dual specificity tyrosine-phosphorylation-regulated kinase 4 (Homo sapiens, UniProt Q9NR20); assay type: functional
[14] = target: MAP/microtubule affinity-regulating kinase 4 (Homo sapiens, UniProt Q96L34); assay: Navigating the Kinome. Panel member name: MARK4; assay type: functional
[15] = target: Receptor tyrosine-protein kinase erbB-2 (Homo sapiens, UniProt P04626); assay: Navigating the Kinome. Panel member name: ERBB2; assay type: functional
[16] = target: cGMP-dependent protein kinase 1 (Homo sapiens, UniProt Q13976); assay type: functional;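 note: value from a kinome panel screen with PRKG1 as the panel member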
[17] = target: Leukocyte tyrosine kinase receptor (Homo sapiens, UniProt P29376); assay: Navigating the Kinome. Panel member name: LTK; assay type: functional
[18] = target: Serine/threonine-protein kinase 3 (Homo sapiens, UniProt Q13188); assay type: functional;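 note: measured as one member of a kinome-wide kinase panel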
[19] = target: Casein kinase II subunit alpha (Homo sapiens, UniProt P68400); assay type: functional
[20] = target: Mitogen-activated protein kinase kinase kinase 10 (Homo sapiens, UniProt Q02779); assay: Navigating the Kinome. Panel member name: MAP3K10; assay type: functional
[21] = target: Mitogen-activated protein kinase 14 (Homo sapiens, UniProt Q16539); assay type: functional;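 note: part of a kinome-wide panel, MAPK14 entry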
[22] = target: Vascular endothelial growth factor receptor 3 (Homo sapiens, UniProt P35916); assay type: functional;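 note: value from a kinome-wide profiling panel, with FLT4 as the panel member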
[23] = target: Homeodomain-interacting protein kinase 4 (Homo sapiens, UniProt Q8NE63); assay type: functional
Sequence of Homeodomain-interacting protein kinase 4 (Q8NE63 whole entry): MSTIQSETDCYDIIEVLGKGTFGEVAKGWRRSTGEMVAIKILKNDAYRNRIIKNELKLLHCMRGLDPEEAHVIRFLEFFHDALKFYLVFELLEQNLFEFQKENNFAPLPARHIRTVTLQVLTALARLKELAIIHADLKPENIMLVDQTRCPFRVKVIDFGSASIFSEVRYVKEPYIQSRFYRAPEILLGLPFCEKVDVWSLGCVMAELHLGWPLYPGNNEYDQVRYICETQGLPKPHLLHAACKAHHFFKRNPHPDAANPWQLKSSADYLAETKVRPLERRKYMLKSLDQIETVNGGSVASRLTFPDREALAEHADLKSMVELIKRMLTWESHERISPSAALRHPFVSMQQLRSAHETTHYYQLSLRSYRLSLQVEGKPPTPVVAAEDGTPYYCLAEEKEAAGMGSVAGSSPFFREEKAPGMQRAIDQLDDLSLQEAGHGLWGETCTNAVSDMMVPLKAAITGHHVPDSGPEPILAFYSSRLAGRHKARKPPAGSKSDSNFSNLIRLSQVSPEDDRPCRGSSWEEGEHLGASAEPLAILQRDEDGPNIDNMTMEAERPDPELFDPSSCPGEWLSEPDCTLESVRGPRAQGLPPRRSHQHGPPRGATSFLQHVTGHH

[24] = target: Death-associated protein kinase 3 (Homo sapiens, UniProt O43293); assay type: functional;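 note: measured as one member of a kinome-wide profiling panel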
[25] = target: Protein kinase C iota type (Homo sapiens, UniProt P41743); assay type: functional;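 note: measured within a kinome-wide kinase panel, PRKCI as panel member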
[26] = target: Dual specificity mitogen-activated protein kinase kinase 1 (Homo sapiens, UniProt Q02750); assay: Navigating the Kinome. Panel member name: MAP2K1; assay type: functional
[27] = target: Interleukin-1 receptor-associated kinase 1 (Homo sapiens, UniProt P51617); assay type: functional;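 note: IRAK1 tested as one member of a kinome panel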
Sequence of Interleukin-1 receptor-associated kinase 1 (P51617 whole entry): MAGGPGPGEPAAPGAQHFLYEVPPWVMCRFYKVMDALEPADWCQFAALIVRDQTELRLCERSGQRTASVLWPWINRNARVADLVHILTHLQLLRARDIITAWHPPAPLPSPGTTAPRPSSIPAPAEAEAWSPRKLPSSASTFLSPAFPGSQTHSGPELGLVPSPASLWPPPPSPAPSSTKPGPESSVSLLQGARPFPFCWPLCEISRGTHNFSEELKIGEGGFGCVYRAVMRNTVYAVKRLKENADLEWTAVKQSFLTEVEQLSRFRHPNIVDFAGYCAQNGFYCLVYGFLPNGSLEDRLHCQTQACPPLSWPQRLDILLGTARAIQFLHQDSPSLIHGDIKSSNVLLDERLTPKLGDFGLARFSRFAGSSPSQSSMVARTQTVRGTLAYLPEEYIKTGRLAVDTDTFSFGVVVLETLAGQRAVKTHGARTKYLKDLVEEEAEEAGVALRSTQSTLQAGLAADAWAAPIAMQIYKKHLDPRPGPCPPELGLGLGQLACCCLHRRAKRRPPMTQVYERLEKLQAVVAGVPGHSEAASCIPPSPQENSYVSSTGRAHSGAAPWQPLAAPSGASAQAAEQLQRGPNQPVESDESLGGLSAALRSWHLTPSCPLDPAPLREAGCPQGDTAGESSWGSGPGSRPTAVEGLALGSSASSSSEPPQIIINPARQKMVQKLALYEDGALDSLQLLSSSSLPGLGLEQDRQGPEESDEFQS

[28] = target: Maternal embryonic leucine zipper kinase (Homo sapiens, UniProt Q14680); assay type: functional
[29] = target: MAP kinase-interacting serine/threonine-protein kinase 2 (Homo sapiens, UniProt Q9HBH9); assay type: functional
[30] = target: Megakaryocyte-associated tyrosine-protein kinase (Homo sapiens, UniProt P42679); assay type: functional;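 note: affinity measured as one member of a kinase panel (Navigating the Kinome) against MATK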

CCCn1nc([N+](=O)[O-])c(C(C#N)c2nc3ccccc3s2)c(Cl)c1=O (centres undefined)
IC50 (Nonstructural protein 1): 24.7 µM (active)
EC50 (Protein RecA): 2.17 µM (active)

NCCCn1cc(-c2cc(-c3cc4ccccc4s3)c3[nH]ncc3c2)c2nc(N)ncc21
Ki (Aurora kinase B): > 2 µM (inactive)
Ki [1]: 0.00316 µM (active)
Ki [2]: > 7.94 µM (inactive)
Ki [3]: > 1.26 µM (inactive)
Ki [4]: 1.26 µM (active)
Ki [5]: 2.51 µM (active)
Ki [6]: 2.51 µM (active)
Ki [7]: 0.251 µM (active)
Ki [8]: 1.58 µM (active)
Ki [9]: > 3.98 µM (inactive)
Ki [10]: 0.126 µM (active)
Ki [11]: > 3.16 µM (inactive)
Ki [12]: > 3.98 µM (inactive)
Ki (Activated CDC42 kinase 1): > 3.98 µM (inactive)
Ki [13]: 0.794 µM (active)
Ki [14]: 0.00794 µM (active)
Ki [15]: > 1.58 µM (inactive)
Ki [16]: 0.00631 µM (active)
Ki [17]: > 2.51 µM (inactive)
Ki [18]: 0.501 µM (active)
Ki [19]: 0.1 µM (active)
Ki [20]: 0.126 µM (active)
Ki [21]: > 3.98 µM (inactive)
Ki [22]: 1 µM (active)
Ki [23]: 0.501 µM (active)
Ki [24]: 0.0794 µM (active)
Ki [25]: 0.00316 µM (active)
Ki [26]: > 3.16 µM (inactive)
Ki [27]: 1.26 µM (active)
Ki [28]: 0.251 µM (active)
Ki [29]: 0.0251 µM (active)
Ki [30]: > 2 µM (inactive)
